Results from patent EP4624472A1, “DEGRADER INCLUDING NOVEL C-MET PROTEIN LIGAND AND PHARMACEUTICAL COMPOSITION INCLUDING SAME” (Innocure Therapeutics, Inc., priority 2022, dated 2024).
Read-outs that look alike come from different tables or passages of the source.

Key:
SNU-638 = experiment: In vitro cell viability assay (cancer cell anti-proliferative activity), SNU-638; format: cell-based, human; conditions: SNU-638 cells, treated 72 hours
Description: (§1) The c-MET overexpressing human gastric cancer cell lines MKN45 and SNU638 were cultured in RPMI medium with 10% fetal bovine serum, penicillin (100 U/ml), and streptomycin ([…]), and the c-MET exon 14 skipping mutant human gastric cancer cell line Hs746T was cultured in DMEM media. The c-MET overexpressing human lung cancer cell line EBC-1 was cultured in MEM media with the addition of 10% fetal bovine serum, penicillin (100U/ml), and streptomycin ([…]). The normal cell line WI-38 derived from human lung tissue was cultured in EMEM medium with the addition of 10% fetal bovine serum, penicillin (100U/ml), and streptomycin ([…]).
(§2) The compound synthesized in accordance with the present invention was prepared with a raw material solution of 10 mM dissolved in DMSO (dimethyl sulfoxide), and was sequentially diluted and processed.
(§3) In order to evaluate the inhibitory activity on cell growth, cells were dispensed in a 96-well plate at a concentration of 5,000 cells/well and then treated with the compound of the present invention prepared at various concentrations for 72 hours. The absorbance measurement at 450 nm was calculated using the GraphicPad Prism 8.0 software. The IC50 value (concentration of the compound achieving 50% cytostatic inhibition) is the average value of the measured results. […]

EBC-1 = experiment: In vitro cell viability assay (cancer cell anti-proliferative activity), EBC-1; format: cell-based, human; conditions: EBC-1 cells, treated 72 hours
Description: as §1, §2, §3

c-MET [1] = target: T1, c-MET (Homo sapiens, UniProt P08581); experiment: c-MET protein degradation (Simple Western) in EBC-1 cells; format: cell-based; design: To evaluate the degradation efficacy of the compounds of the present invention for c-MET expressed in cells; endogenous in cells; host or cells: EBC-1 (human lung cancer cell line); conditions: EBC-1, lung cancer cell line treated 48 hours; c-MET expression normalized to GAPDH, 0.1% DMSO = 100%; read-out: In vitro cell viability assay (nM) EBC-1 DC50
T1 sequence (P08581 25-1390): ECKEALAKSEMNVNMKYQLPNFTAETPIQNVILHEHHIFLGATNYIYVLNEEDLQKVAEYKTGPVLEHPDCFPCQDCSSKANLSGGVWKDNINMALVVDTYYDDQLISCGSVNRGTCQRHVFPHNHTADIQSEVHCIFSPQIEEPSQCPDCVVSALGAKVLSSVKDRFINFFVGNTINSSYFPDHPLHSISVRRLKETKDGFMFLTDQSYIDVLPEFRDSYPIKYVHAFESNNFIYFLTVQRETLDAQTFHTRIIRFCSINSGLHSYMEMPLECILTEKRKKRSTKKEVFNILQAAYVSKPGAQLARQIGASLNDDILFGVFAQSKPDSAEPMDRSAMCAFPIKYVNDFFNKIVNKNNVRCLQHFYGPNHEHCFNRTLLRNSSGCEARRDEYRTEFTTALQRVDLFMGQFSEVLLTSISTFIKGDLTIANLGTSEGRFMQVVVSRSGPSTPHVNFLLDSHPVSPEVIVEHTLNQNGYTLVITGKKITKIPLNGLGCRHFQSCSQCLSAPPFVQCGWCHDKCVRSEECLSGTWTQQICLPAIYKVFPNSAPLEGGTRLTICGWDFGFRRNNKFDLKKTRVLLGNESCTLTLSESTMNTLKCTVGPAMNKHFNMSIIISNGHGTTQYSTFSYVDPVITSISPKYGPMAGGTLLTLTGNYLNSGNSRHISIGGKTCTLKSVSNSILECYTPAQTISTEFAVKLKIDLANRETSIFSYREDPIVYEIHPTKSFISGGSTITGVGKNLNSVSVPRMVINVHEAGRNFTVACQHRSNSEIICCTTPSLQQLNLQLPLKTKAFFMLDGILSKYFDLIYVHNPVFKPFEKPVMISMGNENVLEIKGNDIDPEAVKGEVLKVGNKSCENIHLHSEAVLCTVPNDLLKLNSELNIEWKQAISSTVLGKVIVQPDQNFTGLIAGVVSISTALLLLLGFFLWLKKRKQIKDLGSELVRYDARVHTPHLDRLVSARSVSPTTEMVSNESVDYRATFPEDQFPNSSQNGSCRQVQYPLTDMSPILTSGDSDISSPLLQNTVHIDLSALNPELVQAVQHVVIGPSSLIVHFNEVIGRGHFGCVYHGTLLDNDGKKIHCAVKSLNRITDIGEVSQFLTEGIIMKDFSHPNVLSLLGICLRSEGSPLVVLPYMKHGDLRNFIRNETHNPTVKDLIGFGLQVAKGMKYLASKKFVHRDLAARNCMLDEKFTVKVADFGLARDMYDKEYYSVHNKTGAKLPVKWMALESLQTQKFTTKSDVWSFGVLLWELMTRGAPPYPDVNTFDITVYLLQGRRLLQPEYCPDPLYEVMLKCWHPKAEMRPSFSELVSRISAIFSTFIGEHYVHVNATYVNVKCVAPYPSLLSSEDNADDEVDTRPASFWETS
Description: as §1, §2
(§4) To evaluate the degradation efficacy of the compounds of the present invention for c-MET expressed in cells, cells were dispensed in a 12-well plate at a concentration of 2 × 10^5 cells/well, and then gastric cancer cell lines were treated with samples for 24 hours and lung cancer cell lines were treated for 48 hours.
(§5) To perform a western blotting assay to confirm protein expression, cells treated with a compound treated with 40 µL of RIPA buffer with a protease inhibitor for 30 minutes, collected cell lysate using a scraper on ice, and centrifuged at 4°C 15,000 rpm for 30 min to obtain a protein-containing supernatant.
(§6) Protein expression was then measured using the Simple Western Automated Western Blot System Abby instrument using 3 µg of protein for each sample. SDS and heat-induced denaturation proteins were separated by molecular weight, attached to the capillary, reacted with anti-c-MET or anti-GAPDH antibodies, which are primary antibodies, and then reacted with HRP-conjugated secondary antibodies, and analyzed the protein expression signal with compass software.
(§7) Protein expression was normalized based on the expression value of GAPDH, and the protein expression amount in each sample was measured as a percentage (%) based on 100% of samples treated with 0.1% DMSO carrier, and DC50 (concentration of a compound where 50% protein inhibition is achieved) was calculated from the change in protein expression amount due to compound treatment.

c-MET [2] = target: T1, c-MET; experiment: c-MET protein degradation (Simple Western) in SNU-638 cells; format: cell-based; design: To evaluate the degradation efficacy of the compounds of the present invention for c-MET expressed in cells; endogenous in cells; conditions: SNU-638, gastric cancer cell line treated 24 hours; c-MET expression normalized to GAPDH, 0.1% DMSO = 100%; read-out: In vitro cell viability assay (nM) SNU-638 DC50
Description: as §1, §2, §4, §5, §6, §7

[3] = absorbance at 450 nm, read-out: In vitro cell viability assay (IC50, nM) SNU-638
[4] = absorbance at 450 nm, read-out: In vitro cell viability assay (IC50, nM) EBC-1
[5] = Homo sapiens, absorbance at 450 nm, read-out: In vitro cell viability assay (IC50, nM) SNU-638
[6] = Homo sapiens, absorbance at 450 nm, read-out: In vitro cell viability assay (IC50, nM) EBC-1

Row | Molecule | IC50 (SNU-638; [5]) [nM] | IC50 (EBC-1; [6]) [nM] | also measured
1 | 3-(6-oxo-1-(3-(5-(piperazine-1-yl)pyrimidine-2-yl)benzyl)-1,6-dihydropyridazine-3-yl)benzonitrile [Example C-6] |  |  | IC50 (SNU-638; [3]): ≤ 100 nM; IC50 (EBC-1; [4]): ≤ 100 nM
2 | CN1CCN(Cc2ccc(-c3cnc(N4CCO[C@H](Cn5nnc6nc(-c7cnn(C)c7)cnc65)C4)nc3)cc2)CC1 [ABN401, reference compound] | ≤ 100 | ≤ 100 | 
3 | Cn1cc(-c2cnc3c(nnn3C[C@@H]3CN(c4ncc(N5CCN(CC6CN(C(=O)OC(C)(C)C)C6)CC5)cn4)CCO3)n2)cn1 [Example B-1, tert-butyl(S)-3-((4-(2-(2-((5-(1-methyl-1H-pyrazole-4-yl)-1H-[1,2,3]triazolo[4,5-b]pyrazine-1-yl)methyl)morpholino)pyrimidine-5-il)ppiperazine-1-il)methyl)azetidine-1-carboxylate] | ≤ 100 | ≤ 100 | 
4 | Cn1cc(-c2cnc3c(nnn3C[C@@H]3CN(c4ncc(N5CCN(CC6CNC6)CC5)cn4)CCO3)n2)cn1 [Example B-2] | ≤ 100 | ≤ 100 | 
5 | CN1CC(CN2CCN(c3cnc(N4CCO[C@H](Cn5nnc6nc(-c7cnn(C)c7)cnc65)C4)nc3)CC2)C1 [Example B-3, (S)-2-((5-(1-methyl-1H-pyrazole-4-yl)-1H-[1,2,3]triazolo[4,5-b]pyrazine-1-yl)methyl)-4-(5-(4-((1-methylazetidine-3-yl)methyl)piperazine-1-il)pyrimidine-2-yl)morpholine] | ≤ 100 | ≤ 100 | 
6 | Cn1cc(-c2cnc3c(nnn3C[C@@H]3CN(c4ncc(N5CC(CN6CCN(C(=O)OCc7ccccc7)CC6)C5)cn4)CCO3)n2)cn1 [Example B-4] | ≤ 100 | ≤ 100 | 
7 | Cn1cc(-c2cnc3c(nnn3C[C@@H]3CN(c4ncc(N5CC(CN6CCNCC6)C5)cn4)CCO3)n2)cn1 [Example B-5, (S)-2-((5-(1-methyl-1H-pyrazole-4-yl)-1H-[1,2,3]triazolo[4,5-b]pyrazine-1-yl)methyl)-4-(5-(3-(piperazine-1-ylmethyl)azetidine-1-il)pyrimidine-2-yl)morpholine] | ≤ 100 | ≤ 100 | 
8 | Cn1cc(-c2cnc3c(nnn3C[C@@H]3CN(c4ncc(N5CC(COCc6ccccc6)C5)cn4)CCO3)n2)cn1 [Example B-6, (S)-4-(5-(3-((benzyloxy)methyl)azetidine-1-il)pyrimidine-2-yl)-2-((5-(1-methyl-1H-pyrazole-4-yl)-1H-[1,2,3]triazolo[4,5-b]pyrazine-1-yl)methyl)morpholine] | ≤ 100 | ≤ 100 | 
9 | Cn1cc(-c2cnc3c(nnn3C[C@@H]3CN(c4ncc(N5CC(CO)C5)cn4)CCO3)n2)cn1 [Example B-7, (S)-(1-(2-(2-((5-(1-methyl-1H-pyrazole-4-yl)-1H-[1,2,3]triazolo[4,5-b]pyrazine-1-yl)methyl)morpholino)pyrimidine-5-il)azetidine-3-yl)methanol] | ≤ 100 | ≤ 100 | 
10 | Cc1ccc(S(=O)(=O)OCC2CN(c3cnc(N4CCO[C@H](Cn5nnc6nc(-c7cnn(C)c7)cnc65)C4)nc3)C2)cc1 [Example B-8, (S)-(1-(2-(2-((5-(1-methyl-1H-pyrazole-4-yl)-1H-[1,2,3]triazolo[4,5-b]pyrazine-1-yl)methyl)morpholino)pyrimidine-5-il)azetidine-3-yl)methyl 4-methylbenzenesulfonate] | ≤ 100 | ≤ 100 | 
11 | Cn1cc(-c2cnc3c(nnn3C[C@@H]3CN(c4ncc(N5CC(CN6CCN(C(=O)OC(C)(C)C)CC6)C5)cn4)CCO3)n2)cn1 [Example B-9] | ≤ 100 | ≤ 100 | 
12 | CN1CCN(CC2CN(c3cnc(N4CCO[C@H](Cn5nnc6nc(-c7cnn(C)c7)cnc65)C4)nc3)C2)CC1 [Example B-10, (S)-2-((5-(1-methyl-1H-pyrazole-4-yl)-1H-[1,2,3]triazolo[4,5-b]pyrazin-1-yl)methyl)-4-(5-(3-((4-methylpiperazine-1-yl)methyl)azetidine-1-il)pyrimidine-2-yl)morpholine] | ≤ 100 | ≤ 100 | 
13 | COc1ccc(COCC2CN(c3cnc(N4CCO[C@H](Cn5nnc6nc(-c7cnn(C)c7)cnc65)C4)nc3)C2)cc1 [Example B-11, (S)-4-(5-(3-(((4-methoxybenzyl)oxy)methyl)azetidine-1-il)pyrimidine-2-yl)-2-((5-(1-methyl-1H-pyrazole-4-yl)-1H-[1,2,3]triazolo[4,5-b]pyrazine-1-yl)methyl)morpholine] | ≤ 100 | ≤ 100 | 
14 | CC(C)(C)OC(=O)Nc1ccc(COCC2CN(c3cnc(N4CCO[C@H](Cn5nnc6nc(-c7cn[nH]c7)cnc65)C4)nc3)C2)cc1 [Example B-12, tert-butyl(S)-(4-(((1-(2-(2-((5-(1H-pyrazole-4-yl)-1H-[1,2,3]triazolo[4,5-b]pyrazine-1-yl)methyl)morpholino)pyrimidine-5-il)azetidine-3-il)methoxy)methyl)phenyl)carbamate] |  |  | IC50 (SNU-638; [3]): ≤ 1000 nM; IC50 (EBC-1; [4]): ≤ 1000 nM
15 | Cn1cc(-c2cnc3c(nnn3C[C@@H]3CN(c4ncc(N5CC(COCc6ccc(NC(=O)OC(C)(C)C)nc6)C5)cn4)CCO3)n2)cn1 [Example B-13] | ≤ 1000 | ≤ 1000 | 
16 | CC(C)(C)OC(=O)N1CCO[C@@H](COc2cnc(-c3cccc(Cn4nc(-c5cccc(C#N)c5)ccc4=O)c3)nc2)C1 [Example C-1, tert-butyl(2R)-2-(((2-(3-((3-(3-cyanophenyl)-6-oxopyridazin-1(6H)-yl)methyl)phenyl)pyrimidine-5-yl)oxy)methyl)methyl-4-carboxylate] | ≤ 100 | ≤ 100 | 
17 | N#Cc1cccc(-c2ccc(=O)n(Cc3cccc(-c4ncc(OC[C@@H]5CNCCO5)cn4)c3)n2)c1 [Example C-2, (S)-3-(1-(3-(5-(morpholine-2-ylmethoxy)pyrimidine-2-yl)benzyl)-6-oxo-1,6-dihydropyridazine-3-yl)benzonitrile] | ≤ 100 | ≤ 100 | 
18 | CC(C)(C)OC(=O)N1CCN(CCOc2cnc(-c3cccc(Cn4nc(-c5cccc(C#N)c5)ccc4=O)c3)nc2)CC1 [Example C-3] | ≤ 100 | ≤ 100 | 
19 | N#Cc1cccc(-c2ccc(=O)n(Cc3cccc(-c4ncc(OCCN5CCNCC5)cn4)c3)n2)c1 [Example C-4, 3-(6-oxo-1-(3-(5-(2-(piperazine-1-yl)ethoxy)pyrimidine-2-yl)benzyl)-1,6-dihydropyridazine-3-yl)benzonitrile] | ≤ 100 | ≤ 100 | 
20 | CC(C)(C)OC(=O)N1CCN(c2cnc(-c3cccc(Cn4nc(-c5cccc(C#N)c5)ccc4=O)c3)nc2)CC1 [Example C-5] |  |  | IC50 (SNU-638; [3]): ≤ 100 nM; IC50 (EBC-1; [4]): ≤ 100 nM
21 | N#Cc1cccc(-c2ccc(=O)n(Cc3cccc(-c4ncc(OC[C@@H]5CN(c6ccc(NC7CCC(=O)NC7=O)cc6F)CCO5)cn4)c3)n2)c1 (stereo partly drawn) [Example E-3, 3-(1-(3-(5-(((2R)-4-(4-((2,6-dioxopiperidin-3-yl)amino)-2-fluorophenyl)morpholine-2-yl)methoxy)pyrimidine-2-yl)benzyl)6-oxo-1,6-dihydropyridazine-3-il)benzonitrile] |  |  | DC50 (c-MET [1]): > 1000 nM; DC50 (c-MET [2]): > 1000 nM; IC50 (SNU-638; Homo sapiens, read-out: In vitro cell viability assay (nM) SNU-638 IC50): ≤ 100 nM; IC50 (EBC-1; Homo sapiens, read-out: In vitro cell viability assay (nM) EBC-1 IC50): ≤ 100 nM
